Measured values reported in PubChem BioAssay (NCI).
Where “and” joins values, the source holds several entries; their conditions need not be identical. Equal values may be shown once.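 Briefly, cells in 96-well plates were exposed to five compound concentrations for 48 h, and endpoints were estimated by linear interpolation. TGI denotes the concentration required for complete inhibition of growth.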

How the values were obtained:
Experiment in all cases: NCI anticancer screen, dose series, 48 h
DMS 114 small cell lung = test system: DMS 114 small cell lung
COLO 205 colon = test system: COLO 205 colon
HCT-116 colon = test system: HCT-116 colon
SK-MEL-28 melanoma = test system: SK-MEL-28 melanoma
HOP-62 NSCLC = test system: HOP-62 NSCLC
HOP-18 NSCLC = test system: HOP-18 NSCLC
DMS 273 small cell lung = test system: DMS 273 small cell lung
OVCAR-5 ovarian = test system: OVCAR-5 ovarian
MDA-N = test system: MDA-N
A498 renal = test system: A498 renal
DLD-1 colon = test system: DLD-1 colon
HS 578T breast = test system: HS 578T breast
786-0 renal = test system: 786-0 renal

Compound	TGI (DMS 114 small cell lung)	TGI (COLO 205 colon)	TGI (HCT-116 colon)	TGI (SK-MEL-28 melanoma)	TGI (HOP-62 NSCLC)	TGI (HOP-18 NSCLC)	TGI (DMS 273 small cell lung)	TGI (OVCAR-5 ovarian)	TGI (MDA-N)	TGI (A498 renal)	TGI (DLD-1 colon)	TGI (HS 578T breast)	TGI (786-0 renal)
c1ccc(Nc2nnc(-c3nsc4ccccc34)o2)cc1	> 100 µM	> 100 µM	> 100 µM	> 100 µM	> 100 µM	> 100 µM	> 100 µM	> 100 µM					
COc1ccc(C2=CN3CCC[C@H]3C=C2c2cc(O)c(OC)c(OC)c2)cc1OC	0.0189 µM	0.0256 µM	0.0108 µM	0.101 µM and 0.0107 µM	0.122 µM and 0.148 µM	0.0504 µM	0.0216 µM	0.127 µM	0.104 µM	0.0269 µM and 0.062 µM	0.0627 µM and 0.0119 µM	0.036 µM	
CC(C)(C)OC(=O)NCC(=O)N1CCCN(C(=O)CNC(=O)OC(C)(C)C)CC1		> 100 µM	> 100 µM	> 100 µM	> 100 µM			> 100 µM	> 100 µM	> 100 µM		> 100 µM	> 100 µM
CC(C)CCC/C(CBr)=C(\Cl)CCl		3.54 µM	7.03 µM	5.19 µM	20.8 µM			29.1 µM	3.91 µM	35.2 µM		7.46 µM	3.67 µM
CCOC(=O)C(C)c1nc2cc(N3CCN(C)CC3)c(F)cc2[nH]c1=O (configuration not stated)		> 100 µM	> 100 µM	> 100 µM	> 100 µM			> 100 µM	> 100 µM	> 100 µM		> 100 µM	> 100 µM
CC(=O)NC1=CC(=O)c2cc(C)cc(O)c2C1=O		13.3 µM	16.3 µM	1.54 µM	35.2 µM			26.1 µM	3.02 µM	27.5 µM		> 84.5 µM	27.3 µM
CC(=O)NC1=C(C)C(=O)c2c(nc3n2CC[C@H]3OC(C)=O)C1=O		3.36 µM	3.14 µM	5.16 µM	28.3 µM			7.34 µM	1.69 µM	30.5 µM		9.21 µM	4.32 µM
COc1ccc(C2(C3c4cc(OC)c(OC)cc4CCN3C)SCCCS2)cc1O (configuration not stated)		> 100 µM	> 100 µM	> 100 µM	> 100 µM			> 100 µM	> 100 µM	> 100 µM		> 100 µM	> 100 µM
CCOC(=O)C(=Cn1c(=S)[nH]c2ccc([N+](=O)[O-])cc21)C(=O)OCC		> 100 µM	> 100 µM	> 100 µM	> 100 µM			> 100 µM	> 100 µM	> 100 µM		> 100 µM	> 100 µM
CN(C)CCn1c(=O)c2ccc3c4c(nn3CCN(C)C)c3ccccc3n(c1=O)c24		0.985 µM	2.22 µM	6.46 µM	1.88 µM			2.89 µM	0.97 µM	1.34 µM		12.5 µM	0.961 µM
COc1cc(C2S/C(=C/c3ccccc3)C(=O)N2c2cccc([N+](=O)[O-])c2)cc(OC)c1OC (configuration not stated)		> 100 µM	> 100 µM	> 100 µM	> 100 µM			> 100 µM	55.7 µM	> 100 µM		> 100 µM	> 100 µM
Cc1nnc2sc(N/N=C/c3ccccc3)nn12		> 100 µM	> 100 µM	> 100 µM	> 100 µM			> 100 µM	> 100 µM	> 100 µM		> 100 µM	> 100 µM
C/C(N=Nc1nc2ccccc2o1)=C1/C=CC=CN1O		> 100 µM	> 100 µM	> 100 µM	> 100 µM			28.1 µM	> 100 µM	> 100 µM		> 100 µM	> 100 µM
CC(=O)OCC1OC(c2nnc(C)o2)=CC(OC(C)=O)C1OC(C)=O (configuration not stated)		> 100 µM	> 100 µM	> 100 µM	> 100 µM			> 100 µM	> 100 µM	> 100 µM		> 100 µM	> 100 µM
CS(=O)(=O)O.[Ag]		4.84 µM	20 µM	35.2 µM	65.9 µM			35 µM	19.9 µM	40 µM		> 100 µM	29.9 µM
COC(=O)c1cccc(C(=O)OC)c1		> 100 µM	> 100 µM	> 100 µM	> 100 µM	> 100 µM	> 100 µM	> 100 µM		> 100 µM	> 100 µM		
CCOC(=O)N(C)C1(c2ccccc2)CCN(CCCC(=O)c2ccc(F)cc2)CC1		29.7 µM	> 100 µM	47.1 µM	> 100 µM			> 100 µM	41.5 µM	> 100 µM		> 100 µM	88.7 µM
N#Cc1nc(/C=C/c2ccccc2)oc1N		> 100 µM	> 100 µM	> 100 µM	> 100 µM			> 100 µM	> 100 µM	> 100 µM		> 100 µM	> 100 µM
CC(C)(NC1=NCCO1)c1ccccc1		> 100 µM	> 100 µM	> 100 µM	> 100 µM			> 100 µM	> 100 µM	> 100 µM		> 100 µM	> 100 µM
O=C1C(N=Nc2ccc(-c3nc4ccccc4[nH]3)cc2)NC(=S)N1c1ccccc1 (configuration not stated)		> 100 µM	> 100 µM	> 100 µM	> 100 µM			> 100 µM	> 100 µM	> 100 µM		> 100 µM	39 µM
